Target: T1, HIV-1 reverse transcriptase (Human immunodeficiency virus type 1 group M subtype B, UniProt P04585)
T1 construct: used as a source of HIV-1 reverse transcriptase; endogenous in cells; host or cells: Virions pelleted from conditioned supernatant of H9 cells infected with HTLV-IIIB, lysed with Triton X-100
Assay: Inhibition of HIV-1 reverse transcriptase activity in vitro (viral lysate, poly(A).(dT)15 template-primer, [3H]dTTP incorporation)
Format: biochemical
Conditions: Concentration 400 micromolar; 37°C, 1 h; read-out: Percent Inhibition
Experimental: Reverse Transcriptase Assays. Virus was concentrated from cell-free ([…]) conditioned H9/HTLV-IIIB culture supernatants by centrifugation at 18,000 r.p.m. for 4 h at 20°C in a Beckman JA-20 rotor. A viral pellet obtained from 50 ml of conditioned culture fluid was dissolved in 0.5 mL of a solution containing 17 mM Tris-HCl (pH 7.8), 3mM dithiothreitol (DTT), 55 mM KC1, 0.32% w/v Triton X-100, and 33% glycerol. This viral lysate was stored at -20°C and was used as a source of HIV-1 reverse transcriptase. Reverse transcriptase reactions were performed in 100 µL reaction volumes containing 40 mM Tris-HC1 (pH 7.8), 4 mM DTT, 50 mM KCl, 10 mM MgCl2, 0.0325% w/v Triton X-100, 3 micromolar [^33H]dTTP (80 Ci/mmol,NEN) and poly (A).(dT)15 (2.5 microgram/mL) template-primer after the addition of 10 microliter enzyme. Inhibitors were added at various concentrations after adjusting water volumes so that reaction volumes remained constant. Reactions were incubated at 37°C for 1 h in a humidified environment and terminated by adding 2 mL of 10% cold trichloroacetic acid. Precipitate was collected on 0.45 µm cellulose-acetate Millipore filters which were then dissolved in 10 mL of 3a70B aqueous scintillant and the counts per minute quantitated using a Beckman LS 6800 liquid scintillation spectrometer.

SMILES | inhibition at 400 µM [%]
Nc1ncnc2c1ncn2[C@@H]1O[C@H](CO)[C@@H](O)[C@H]1O [(adenosine) A, adenosine] | 0
Nc1ncnc2c1ncn2[C@@H]1O[C@H](CO)C[C@H]1O [cordycepin (C), 3'-deoxyadenosine] | 0

Source: EP0716856B1, “Therapeutic uses of 2',5'-oligoadenylate derivatives” (Temple University of the Commonwealth System of Higher …, priority 1988, dated 1989)
